T/C data for 21 compounds are collected here from PubChem BioAssay AID330 (DTP/NCI, 2004).

The test system of the assay is P388 leukemia ip, CD2F1 mice, survival T/C. Nature of the assay: NCI In Vivo Anticancer Drug Screen. Data for tumor model P388 Leukemia (intraperitoneal) in CD2F1 (CDF1) mice. To be noted: endpoint: median survival time, higher = longer survival. The method, boiled down:
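Mice carrying the transplanted tumor received test compound or vehicle. Survival was recorded in each group, and the value is the treated-group measurement divided by that of the vehicle-treated control group.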

Setting [1] is: dose: 60.0 mg/kg/injection, schedule: Q01DX005 (ip), vehicle: saline with Tween-80.
Setting [2] is: dose: 120.0 mg/kg/injection, schedule: Q01DX005 (ip), vehicle: saline with Tween-80.
Where [3] appears, read: dose: 240.0 mg/kg/injection, schedule: Q01DX005 (ip), vehicle: saline with Tween-80.
Where [4] appears, read: dose: 12.5 mg/kg/injection, schedule: Q01DX009 (ip), vehicle: distilled water + Tween-80.
Setting [5] is: dose: 25.0 mg/kg/injection, schedule: Q01DX009 (ip), vehicle: distilled water + Tween-80.
[6] abbreviates: dose: 50.0 mg/kg/injection, schedule: Q01DX009 (ip), vehicle: distilled water + Tween-80.
[7] abbreviates: dose: 100.0 mg/kg/injection, schedule: Q01DX009 (ip), vehicle: distilled water + Tween-80.
The mark [8] stands for this setting: dose: 200.0 mg/kg/injection, schedule: Q01DX009 (ip), vehicle: distilled water + Tween-80.
Where [9] appears, read: dose: 6.25 mg/kg/injection, schedule: Q01DX009 (ip), vehicle: saline.
[10] abbreviates: dose: 12.5 mg/kg/injection, schedule: Q01DX009 (ip), vehicle: saline.
Where [11] appears, read: dose: 25.0 mg/kg/injection, schedule: Q01DX009 (ip), vehicle: saline.
Where [12] appears, read: dose: 50.0 mg/kg/injection, schedule: Q01DX009 (ip), vehicle: saline.
[13] abbreviates: dose: 100.0 mg/kg/injection, schedule: Q01DX009 (ip), vehicle: saline.
Setting [14] is: dose: 200.0 mg/kg/injection, schedule: Q01DX009 (ip), vehicle: saline.
Where [15] appears, read: dose: 50.0 mg/kg/injection, schedule: Q01DX009 (ip), vehicle: saline with Tween-80.
The mark [16] stands for this setting: dose: 12.5 mg/kg/injection, schedule: Q01DX009 (ip), vehicle: Klucel (hydroxypropylcellulose) (HPC).
Where [17] appears, read: dose: 25.0 mg/kg/injection, schedule: Q01DX009 (ip), vehicle: Klucel (hydroxypropylcellulose) (HPC).
The mark [18] stands for this setting: dose: 50.0 mg/kg/injection, schedule: Q01DX009 (ip), vehicle: Klucel (hydroxypropylcellulose) (HPC).
Setting [19] is: dose: 100.0 mg/kg/injection, schedule: Q01DX001 (ip), vehicle: Klucel (hydroxypropylcellulose) (HPC).
The mark [20] stands for this setting: dose: 200.0 mg/kg/injection, schedule: Q01DX001 (ip), vehicle: Klucel (hydroxypropylcellulose) (HPC).
Where [21] appears, read: dose: 400.0 mg/kg/injection, schedule: Q01DX001 (ip), vehicle: Klucel (hydroxypropylcellulose) (HPC).

Several values for one entry are separate records, joined by “and”; a condition that tells them apart may be missing. Equal values may be shown once. Inconclusive results and toxic doses are left out.

Turning to `COC(=O)C(C#N)=C(Cl)Cl`, the T/C was 98 % of control (dose: 1.56 mg/kg/injection, schedule: Q01DX005 (ip), vehicle: Klucel (hydroxypropylcellulose) (HPC)); 94 % of control (dose: 3.12 mg/kg/injection, schedule: Q01DX005 (ip), vehicle: Klucel (hydroxypropylcellulose) (HPC)); 93 % of control (dose: 6.25 mg/kg/injection, schedule: Q01DX005 (ip), vehicle: Klucel (hydroxypropylcellulose) (HPC)).

For `O=C(Cn1cnc2ccc([N+](=O)[O-])cc21)N1CCN(c2ccccc2)CC1`, the T/C is, setting by setting: under setting [1], 93 % of control; under setting [2], 93 % of control.

As for `Nc1cc2c(cc1Br)-c1c(C(=O)O)cccc1C2O` (centres undefined), the T/C (dose: 50.0 mg/kg/injection, schedule: Q01DX005 (ip), vehicle: sodium bicarbonate) is 113 % of control; the T/C under setting [1] was 100 % of control and 101 % of control; the T/C (dose: 100.0 mg/kg/injection, schedule: Q01DX005 (ip), vehicle: sodium bicarbonate) was 123 % of control; the T/C under setting [2] is 104 % of control; the T/C under setting [3] was 123 % of control; the T/C (dose: 480.0 mg/kg/injection, schedule: Q01DX005 (ip), vehicle: saline with Tween-80) is 154 % of control.

On to `O=C(O)c1[nH]c(=O)[nH]c(=O)c1CO`, for which the T/C runs as follows: (dose: 6.25 mg/kg/injection, schedule: Q01DX009 (ip), vehicle: distilled water + Tween-80) 99 % of control; under setting [4], 100 % of control; under setting [5], 103 % of control; under setting [6], 110 % of control; under setting [7], 100 % of control; under setting [8], 95 % of control. Under “dose: 400.0 mg/kg/injection, schedule: Q01DX009 (ip), vehicle: distilled water + Tween-80”, the T/C was 104 % of control.

With `CNP1(NC)=NP(N(C)C)(N(C)C)=NP(N(C)C)(N(C)C)=N1`, the T/C by setting is: (dose: 50.0 mg/kg/injection, schedule: Q01DX005 (ip), vehicle: saline) 102 % of control; (dose: 100.0 mg/kg/injection, schedule: Q01DX005 (ip), vehicle: saline) 112 % of control; (dose: 200.0 mg/kg/injection, schedule: Q01DX005 (ip), vehicle: saline) 104 % of control.

Take `Cc1ccc(C)c(N2C(=O)CC3(CCCC3)C2=O)c1`: the T/C was 101 % of control (dose: 100.0 mg/kg/injection, schedule: Q04DX003 (ip), vehicle: Klucel (hydroxypropylcellulose) (HPC)); 101 % of control (dose: 200.0 mg/kg/injection, schedule: Q04DX003 (ip), vehicle: Klucel (hydroxypropylcellulose) (HPC)); 99 % of control (dose: 400.0 mg/kg/injection, schedule: Q04DX003 (ip), vehicle: Klucel (hydroxypropylcellulose) (HPC)).

With `O/N=C1C=C/C(=C/c2ccccc2)c2ccccc2/1`, the T/C is, setting by setting: (dose: 50.0 mg/kg/injection, schedule: Q01DX005 (ip), vehicle: Klucel (hydroxypropylcellulose) (HPC)) 96 % of control; (dose: 100.0 mg/kg/injection, schedule: Q01DX005 (ip), vehicle: Klucel (hydroxypropylcellulose) (HPC)) 92 % of control; (dose: 200.0 mg/kg/injection, schedule: Q01DX005 (ip), vehicle: Klucel (hydroxypropylcellulose) (HPC)) 92 % of control.

Consider `O=NNc1ccc(C(=O)O)cn1`, for which the T/C reads like this: (dose: 3.12 mg/kg/injection, schedule: Q01DX009 (ip), vehicle: saline) 108 % of control; under setting [9], 100 % of control; under setting [10], 106 % of control; under setting [11], 97 % of control; under setting [12], 100 % of control; under setting [13], 91 % of control. Under setting [14], the T/C is 110 % of control.

Consider `COc1ccccc1N=NC(C#N)C(N)=O` (centres undefined), for which the T/C (dose: 25.0 mg/kg/injection, schedule: Q01DX009 (ip), vehicle: saline with Tween-80) was 102 % of control and the T/C under setting [15] is 101 % of control.

`CCOC(=O)c1no[n+]([O-])c1C(=O)OCC`: the T/C by setting is: (dose: 6.25 mg/kg/injection, schedule: Q01DX009 (ip), vehicle: Klucel (hydroxypropylcellulose) (HPC)) 103 % of control; under setting [16], 105 % of control; under setting [17], 101 % of control; under setting [18], 86 % of control.

With `C[n+]1c2ccccc2c(N=[N+]=[N-])c2ccccc21`, the T/C is, setting by setting: under setting [9], 100 % of control; under setting [10], 98 % of control; under setting [11], 105 % of control; under setting [12], 109 % of control.

On to `O=C1C=CC(=O)N1c1ccccc1[N+](=O)[O-]`, for which, under “dose: 6.0 mg/kg/injection, schedule: Q01DX009 (ip), vehicle: saline with Tween-80”, the T/C is 91 % of control.

Regarding `Fc1cccc(-n2nc3c(c2-c2cccnc2)CCCc2ccccc2-3)c1`, the T/C was 106 % of control under setting [19], 102 % of control under setting [20] and 106 % of control under setting [21].

For `Cc1ccc(S(=O)(=O)N/N=C/c2c(Cl)nc3n2CCS3)cc1`, the T/C is, setting by setting: under setting [19], 101 % of control; under setting [20], 94 % of control; under setting [21], 94 % of control.

Take `Cc1nc2ccccc2c2c1C(=O)c1ccccc1-2`: the T/C is 96 % of control (dose: 100.0 mg/kg/injection, schedule: Q04DX002 (ip), vehicle: Klucel (hydroxypropylcellulose) (HPC)); 89 % of control (dose: 200.0 mg/kg/injection, schedule: Q04DX002 (ip), vehicle: Klucel (hydroxypropylcellulose) (HPC)); 89 % of control (dose: 400.0 mg/kg/injection, schedule: Q04DX002 (ip), vehicle: Klucel (hydroxypropylcellulose) (HPC)).

For `OC(Nc1ncccn1)C(F)(F)F` (centres undefined), the T/C runs as follows: under setting [15], 92 % of control; (dose: 100.0 mg/kg/injection, schedule: Q01DX009 (ip), vehicle: saline with Tween-80) 111 % of control; (dose: 200.0 mg/kg/injection, schedule: Q01DX009 (ip), vehicle: saline with Tween-80) 120 % of control.

For the compound `CCOC(=O)Nc1cc(=O)c([N+](=O)[O-])c(N)[nH]1`, the T/C is, setting by setting: (dose: 60.0 mg/kg/injection, schedule: Q01DX005 (ip), vehicle: saline + Tween-80 + alcohol) 99 % of control; (dose: 120.0 mg/kg/injection, schedule: Q01DX005 (ip), vehicle: saline + Tween-80 + alcohol) 101 % of control; (dose: 240.0 mg/kg/injection, schedule: Q01DX005 (ip), vehicle: saline + Tween-80 + alcohol) 100 % of control.

`CC(C)(C)n1nnnc1N`: the T/C is, setting by setting: under setting [16], 100 % of control; under setting [17], 94 % of control; under setting [18], 105 % of control and 112 % of control; (dose: 200.0 mg/kg/injection, schedule: Q01DX009 (ip), vehicle: Klucel (hydroxypropylcellulose) (HPC)) 103 % of control.

For `CCC1(O)C(=O)OCc2c1cc(-c1ccc(Cl)cc1)nc2OC` (centres undefined), the T/C is 101 % of control under setting [4]; 100 % of control under setting [5]; 99 % of control under setting [6]; 91 % of control under setting [7]; 98 % of control under setting [8].

As for `C=CCS(=O)(=O)O`, the T/C by setting is: under setting [13], 100 % of control; under setting [14], 104 % of control; (dose: 400.0 mg/kg/injection, schedule: Q01DX009 (ip), vehicle: saline) 100 % of control.

Turning to `CCOC(=O)C1=C(N)N(S(=O)(=O)c2ccc(C)cc2)CCC(C(=O)OC)=C1`, the T/C is 119 % of control under setting [2] and 108 % of control under setting [3].
